Laboratory results taken from patent US5316775A, “Method of treating hepatitis B infection” (Kremers-Urban Company, priority 1993, dated 1994).
Values joined by “and” are separate entries in the source; they are usually repeats but may differ in a detail not shown here. Equal entries are not always repeated. Where two headings read alike, the source gives them in different places.

Tests used:
Assay type in all cases: cell-based
HBV = assay: antihepatitis viral activity: HBV virion DNA and intracellular HBV DNA in cultured cells (blot hybridization)
Method: Details of the assay methodology can be found in: Korba and Milman, Antiviral Res., 15:217 (1991) and Korba and Gerin, Antiviral Res. (1992) (in press). The antiviral evaluations were performed on two separate passages of cells. All wells, in all plates, were seeded at the same density and at the same time. Due to the inherent variations in the levels of both intracellular and extracellular HBV DNA, only depressions greater than 3.5-fold (for HBV virion DNA) or 3.0-fold (for HBV DNA replication intermediates) from the average levels for these HBV DNA forms in untreated cells are generally considered to be statistically significant [P<0.05]. The levels of integrated HBV DNA in each cellular DNA preparation (which remain constant on a per cell basis in these experiments) were used to calculate the levels of intracellular HBV DNA forms, thereby eliminating technical variations inherent in the blot hybridization assays.
Typical values for extracellular HBV virion DNA in untreated cells range from 50 to 100 pg/ml culture medium (average of approximately 76 pg/ml). Intracellular HBV DNA replication intermediates in untreated cells range from 50 to 100 pg/μg cell DNA) (average approximately 74 pg/μg cell DNA). In general, depressions in the levels of intracellular HBV DNA due to treatment with antiviral compounds are less pronounced, and occur more slowly, than depressions in the levels of HBV virion DNA).
In the following data table, data is shown concerning analysis of intracellular HBV DNA at 24 hours following the 9th day of treatment. DNA in each cell DNA preparation were used to calculate the levels of episomal 3.2 Kb HBV genomes (MONO.) and HBV DNA replication intermediates (RI). A "zero" indicates an undetectable level of HBV DNA, sensitivity cutoff was 0.1 pg/ml.

cell viability = assay: toxicity analysis: uptake of neutral red dye; details: triplicate cultures, ± standard deviation
Method: (§1) Toxicity analyses were performed in order to assess whether any observed antiviral effects are due to a general effect on cell viability. The method used was uptake of neutral red dye, a standard and widely used assay for cell viability in a variety of virus-host systems, including HSV and HIV.
(§2) Toxicity results were performed in 96-well flat bottomed tissue cultures plates. Cells for the toxicity analyses were cultured and treated with test compounds with the same schedule as used for the antiviral evaluations. Each compound was tested at four concentrations, each in triplicate cultures. Uptake of neutral red dye was used to determine the relative level of toxicity. The absorbance of internalized dye at […] (A510) was used for the quantitative analysis. Values are presented as a percentage of the average A510 values (±standard deviations) in nine separate cultures of untreated cells maintained on the same 96-well plate as the test compounds.

[1] = toxicity analysis: uptake of neutral red dye; details: triplicate cultures, ± standard deviation, read-out: Neutral Red Dye Uptake at Indicated Drug Concentration
Method: as §1, §2

## Nc1ccn([C@H]2CC[C@@H](CO)O2)c(=O)n1 [2',3'-ddC, 2,3'-dideoxycytosine]
HBV
  effect on HBV DNA replication (in words): significant depressions of HBV DNA replication
HBV; 10 μM, 24 hours following the 9th day of treatment
  Intracellular HBV DNA MONO. (episomal 3.2 Kb HBV genomes): 1.6 pg/μg CELL DNA and 1.8 pg/μg CELL DNA
HBV; 10 μM, day 0
  HBV VIRION DNA DAY 0: 63 pg/ml CULTURE MEDIUM and 87 pg/ml CULTURE MEDIUM and 82 pg/ml CULTURE MEDIUM
HBV; 10 μM, day 3
  HBV VIRION DNA DAY 3: 75 pg/ml CULTURE MEDIUM and 56 pg/ml CULTURE MEDIUM and 61 pg/ml CULTURE MEDIUM
HBV; 10 μM, day 6
  HBV VIRION DNA DAY 6: 26 pg/ml CULTURE MEDIUM
HBV; 10 μM, day 9, zero = undetectable, cutoff 0.1 pg/ml
  HBV VIRION DNA DAY 9: 2 pg/ml CULTURE MEDIUM and 1 pg/ml CULTURE MEDIUM
HBV; Hepatitis B virus, read-out: depression of HBV RI relative to average levels in untreated cells
  inhibition at 9 µM: 90%
Cell viability; 10 μg/ml
  Neutral Red Dye Uptake at Indicated Drug Concentration: 102 ± 2 % of Control
Cell viability; 30 μg/ml
  Neutral Red Dye Uptake at Indicated Drug Concentration: 101 ± 3 % of Control
[1]; 1000 μg/ml
  viability: 12 ± 5%
[1]; 3000 μg/ml
  viability: 40 ± 4%
